# Patent US11053242B2, “[9,10-dimethoxy-3-(2-methylpropyl)-1H,2H,3H,4H,6H,7H,11BH-pyrido-[2,1-a]isoquinolin-2-yl]methanol and compounds, compositions and methods relating thereto” (Neurocrine Biosciences, Inc., priority 2015, dated 2021)
# Assays:
# [1] = molecular target: VMAT2 (human platelet homogenate) (Homo sapiens (Human), UniProt Q05940); assay: Human VMAT2 Ki, slightly modified competition binding procedure (Table 11); conditions: 10 nM 3H-dihydrotetrabenazine;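 also: competition binding with 90 min incubation at 25 °C, after which filter-retained radioligand was measured by scintillation counting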
# Protocol: Following incubation at 25° C. for 90 minutes, bound radioligand was collected by rapid filtration onto GF/B glass fiber filters using a Unifilter-96 Harvester (PerkinElmer). Filter plates were pre-treated with 0.1% polyethylenimine and allowed to dry overnight, and following harvesting the filter plates were washed with 800 d VMAT2 binding buffer. Bound radioligand was quantified by scintillation counting using a Topcount NXT (PerkinElmer).
# [2] = In vitro human intestinal S9 hydrolysis assay (formation of compound 1-1); conditions: human intestinal S9, 1 uM, 37° C., up to 60 minutes
# Protocol: Compounds (1 uM) were incubated with pooled intestinal S9 subcellular preparations (0.5 mg/mL total protein) from SD rats and humans without the addition of protease inhibitor phenylmethylsulfonylflouride. Incubations were carried out in a potassium phosphate buffer (50 mM). All concentrations were relative to the final incubation volume of 125 uL. Incubations were conducted at 37° C. for 0, 5, 10, 20, 40 and 60 minutes in a water bath and terminated by rapid mixing with 150 uL of ice-cold acetonitrile containing 1% formic acid. Internal standard was added and proteins were precipitated and removed by centrifugation prior to LC/MS analysis.
# Chain of VMAT2 (human platelet homogenate) (Q05940 whole entry): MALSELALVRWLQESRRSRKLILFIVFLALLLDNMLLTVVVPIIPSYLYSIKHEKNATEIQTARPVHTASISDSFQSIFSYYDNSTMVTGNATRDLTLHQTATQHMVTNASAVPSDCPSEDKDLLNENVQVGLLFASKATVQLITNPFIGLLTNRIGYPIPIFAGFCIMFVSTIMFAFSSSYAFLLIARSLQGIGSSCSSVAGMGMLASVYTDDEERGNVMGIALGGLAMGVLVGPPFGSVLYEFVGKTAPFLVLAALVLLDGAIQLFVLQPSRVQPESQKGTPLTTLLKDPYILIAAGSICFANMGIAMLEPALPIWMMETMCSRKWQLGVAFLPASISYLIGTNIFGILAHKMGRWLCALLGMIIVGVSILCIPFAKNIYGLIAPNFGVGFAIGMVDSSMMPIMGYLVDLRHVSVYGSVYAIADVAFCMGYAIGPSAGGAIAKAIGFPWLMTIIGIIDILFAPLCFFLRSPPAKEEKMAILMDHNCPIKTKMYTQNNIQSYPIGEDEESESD
Structure (SMILES),Ki [1],S9 Assay (ability to form compound 1-1) [2]
"COc1cc2c(cc1OC)[C@H]1C[C@@H](COC(=O)N[C@H]3[C@@H](C(=O)O)[C@H]4C=C[C@@H]3C4)[C@H](CC(C)C)CN1CC2 [Compound 5-9, (1R,2S,3R,4S)-3-[({[(2R,3S,11bR)-9,10-dimethoxy-3-(2-methylpropyl)-1H,2H,3H,4H,6H,7H,11bH-pyrido[2,1-a]isoquinolin-2-yl]methoxy}carbonyl)amino]bicyclo[2.2.1]hept-5-ene-2-carboxylic acid]",> 500 nM,+
"COc1cc2c(cc1OC)[C@H]1C[C@@H](COC(=O)NCC(O)C(=O)O)[C@H](CC(C)C)CN1CC2 (stereo partly drawn) [Compound 5-11, 3-[({[(2R,3S,11bR)-9,10-dimethoxy-3-(2-methylpropyl)-1H,2H,3H,4H,6H,7H,11bH-pyrido[2,1-a]isoquinolin-2-yl]methoxy}carbonyl)amino]-2-hydroxypropanoic acid]",10 to 500 nM,++
"COc1cc2c(cc1OC)[C@H]1C[C@@H](COC(=O)N3CCCC(C(=O)O)C3)[C@H](CC(C)C)CN1CC2 (stereo partly drawn) [Compound 5-14, 1-({[(2R,3S,11bR)-9,10-dimethoxy-3-(2-methylpropyl)-1H,2H,3H,4H,6H,7H,11bH-pyrido[2,1-a]isoquinolin-2-yl]methoxy}carbonyl)piperidine-3-carboxylic acid]",> 500 nM,+
"COc1cc2c(cc1OC)[C@H]1C[C@@H](COC(=O)N(C)[C@H](C)C(=O)O)[C@H](CC(C)C)CN1CC2 [Compound 5-17, (2R)-2-[({[(2R,3S,11bR)-9,10-dimethoxy-3-(2-methylpropyl)-1H,2H,3H,4H,6H,7H,11bH-pyrido[2,1-a]isoquinolin-2-yl]methoxy}carbonyl)(methyl)amino]propanoic acid]",10 to 500 nM,+
"COc1cc2c(cc1OC)[C@H]1C[C@@H](COC(=O)NC[C@@H](CC(=O)O)CC(C)C)[C@H](CC(C)C)CN1CC2 [Compound 5-19, (3R)-3-{[({[(2R,3S,11bR)-9,10-dimethoxy-3-(2-methylpropyl)-1H,2H,3H,4H,6H,7H,11bH-pyrido[2,1-a]isoquinolin-2-yl]methoxy}carbonyl)amino]methyl}-5-methylhexanoic acid]",10 to 500 nM,+
"COc1cc2c(cc1OC)[C@H]1C[C@@H](COC(=O)N[C@@H](CC(C)C)C(=O)O)[C@H](CC(C)C)CN1CC2 [Compound 5-20, (2S)-2-[({[(2R,3S,11bR)-9,10-dimethoxy-3-(2-methylpropyl)-1H,2H,3H,4H,6H,7H,11bH-pyrido[2,1-a]isoquinolin-2-yl]methoxy}carbonyl)amino]-4-methylpentanoic acid]",10 to 500 nM,++
"COc1cc2c(cc1OC)[C@H]1C[C@@H](COC(=O)NC3(C(=O)O)CCCCC3)[C@H](CC(C)C)CN1CC2 [Compound 5-23, l-[({[(2R,3S,11bR)-9,10-dimethoxy-3-(2-methylpropyl)-1H,2H,3H,4H,6H,7H,11bH-pyrido[2,1-a]isoquinolin-2-yl]methoxy}carbonyl)amino]cyclohexane-1-carboxylic acid]",10 to 500 nM,++
"COc1cc2c(cc1OC)[C@H]1C[C@@H](COC(=O)N(C)CCCC(=O)O)[C@H](CC(C)C)CN1CC2 [Compound 5-25, 4-[({[(2R,3S,11bR)-9,10-dimethoxy-3-(2-methylpropyl)-1H,2H,3H,4H,6H,7H,11bH-pyrido[2,1-a]isoquinolin-2-yl]methoxy}carbonyl)(methyl)amino]butanoic acid]",> 500 nM,+
"COc1cc2c(cc1OC)[C@H]1C[C@@H](COC(=O)NC(C)CC(=O)O)[C@H](CC(C)C)CN1CC2 (stereo partly drawn) [Compound 5-26, 3-[({[(2R,3S,11bR)-9,10-dimethoxy-3-(2-methylpropyl)-1H,2H,3H,4H,6H,7H,11bH-pyrido[2,1-a]isoquinolin-2-yl]methoxy}carbonyl)amino]butanoic acid]",> 500 nM,+
